The test system of the experiment is 3LL lewis lung carcinoma, variant D122. Description: 3LL Lewis lung carcinoma (D122) experimental lung metastasis in mice: survival and lung weight. Type of experiment: in vivo, C57BL/6 mice. The procedure: C57BL/6, 12 months old male mice were obtained from the Jackson Laboratory.
Syngeneic, 3LL lewis lung carcinoma, variant D122, was obtained from the Weizmann Institute of Science. This tumor line develops metastases in the lungs after intravenous (iv) inoculation.
Cells were cultured in DMEM medium containing high glucose and supplemented with 10% FCS, glutamine and penicillin.
Cells were incubated 24 hr before inoculation into the mice with the different disaccharides (300 ng/ml) in culture medium. Then, the cells were washed and injected i. v., (500,000 cells per mouse) in 100 μl PBS containing 30 ng of the corresponding disaccharide.
The number of dead mice was counted each day after the inoculation was performed. The mice were sacrificed at day 50 and the weights of their lung were determined.
Each group, injected by one of the disaccharides, contained 16 mice. Control mice received PBS alone. The different disaccharides, were injected to the mice subcutaneously (30 ng per mouse in 0.1 ml of PBS), one day before and one and two days after cell inoculation.

[1] abbreviates: day 49 after 3LL injection, 16 mice per group, DS 30 ng per mouse s.c. one day before and one and two days after inoculation.

Take `CC1(C)OC(COS(=O)(=O)O)[C@@](C)(COC[C@@]2(C)OC(C(=O)O)=CC(O)C2OS(=O)(=O)O)C(O)C1N` (stereo partly drawn) [DS 8892, α-ΔUA-2S-[1→4]-GlcN-6S]: where the note is “Mus musculus, Lewis lung carcinoma, sc, 1176 h, day 49 after 3LL injection, [live mice/total mice] × 100, PBS control 6.2”, the responders at 30 ng came out at 25%. For the same compound, where the note is “Mus musculus, Lewis lung carcinoma, sc, 1200 h, day 50 after 3LL injection, [1-(weights of treated group/weights of control group)] × 100, read-out: Decrease (%) of lung weight”, the inhibition in vivo at 30 ng was 28.8%. Under setting [1], this compound returned a dead mice of 12 and a live mice of 4. Further, the “Weights of lungs ± SD” value (day 50 after 3LL injection, PBS 0.92) was 0.66 ± 0.18 gr. In addition, the “anti-tumor treatment / inhibition of tumor development (in words)” value (mice inoculated i.v. with 3LL cells, treated with DS) is given as “did not inhibit the tumor development at all”.

Source of the values: US7285536B2, “Anti-cancer therapeutic compounds” (Yeda Research and Development Co., Ltd., priority 2001, dated 2007).
